“Also recorded” adds a separate entry of the source. Read-outs that look alike come from different tables or passages of the source.
Tests used:
[1] = Chemical stability in aqueous solutions, degradation followed by HPLC; format: physicochemical
Description: The compounds were first dissolved in methanol (30%) or acetonitrile (50%) and then diluted to the final concentrations with water. The time-course of degradation was monitored by HPLC using an Agilent Technologies HPLC chromatograph 1200 Series equipped with a photo-diode array (PDA) detector, a binary-gradient high-pressure pump, and an automatic sampler. The column used was a LiChroCART® 125-4 LiChrospher® 100 RP-18 (5 μm, Merck Millipore) maintained at 25 °C. The solvents were (A) water + 0.1% formic acid and (B) acetonitrile, and the flow rate was 0.8 ml min^–1. The initial mobile phase, 95% A / 5% B, was held for 3 min and then ramped linearly to 100% B at 23 min and held for 5 min before resetting to the original conditions. The sample injection volume was 10 μl. PDA detection was by absorbance in the 200–600-nm wavelength range. Peak detection was at the optimum wavelength (254 nm) and peak areas were used for quantification. Initial and subsequent measurements of peak area attributable to the tested compound were used to fit exponential half-life curves and to calculate first-order rate constants. Stability data allowed for calculation of the time in hours for half of the tested compound to be hydrolysed (t1/2).
Natural and synthetic SLs are rather sensitive to hydrolysis at pH 7 and are readily decomposed through the cleavage of the D-ring at pH 9.38 ([Vurro et al., 2016]). Therefore, differences in activity among SL analogues may be attributed to their instability in the aqueous medium. In order to address this point, the stability in aqueous solutions of the newly synthesized SL-D-lactams was tested, and compared to the (+)-GR24 standard ([Kannan and Zwanenburg, 2014]; [Halouzka et al., 2018]). Two different conditions were considered, a 30% solution of MeOH in water and a 1:1 solution of acetonitrile in water. As expected, stability in MeOH was highly compromised for all compounds, but to a greater extent for analogues showing both the Michael acceptor function (enol ether bridge) and an unprotected N in the D-lactam ring, as for rac-3, rac-4, rac-5, and rac-7 (Table 1): after a few hours 50% of the compounds were degraded. This was not surprising from a chemical point of view, as the functional group in SL-D-lactams is an aminal, which is more prone to hydrolysis than the acetal of the natural SL skeleton. […] For rac-5, the NH compound in the EGO10 family, the half-life dropped to 2 h.

[2] = target: T1, AtD14 fused to firefly luciferase (D14::LUC) (Arabidopsis thaliana, UniProt Q9SQR3); assay: Luminometer-based competition assay between rac-9 and (+)-GR24; format: in vivo; conditions: rac-9 constant at 10 μM, (+)-GR24 0.01–100 μM
T1 construct: a pDONOR207 carrying the D14 promoter fused to the D14 CDS; expressed in transfected cells
T1 sequence (Q9SQR3 1-267): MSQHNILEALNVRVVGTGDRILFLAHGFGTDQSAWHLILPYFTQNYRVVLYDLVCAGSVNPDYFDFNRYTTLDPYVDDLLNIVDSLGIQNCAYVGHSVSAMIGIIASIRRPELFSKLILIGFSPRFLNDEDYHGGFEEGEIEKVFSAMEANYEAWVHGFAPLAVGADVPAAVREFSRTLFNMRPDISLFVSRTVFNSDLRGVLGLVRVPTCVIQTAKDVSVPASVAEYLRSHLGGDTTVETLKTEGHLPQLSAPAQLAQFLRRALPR
Description: The efficacy values in these samples in terms of luminescence quenching were compared with those of samples receiving (+)-GR24 alone (positive control). […] Luciferase competition test between rac-9 and (+)-GR24. (A) Efficacy values for (+)-GR24 across a range of concentrations, normalized to the value at 1 μM, which was set to 100%. (B) Efficacy values for (+)-GR24 across the same range of concentrations as in (A), but in the presence of rac-9 at 10 μM. Data are means (±SD) of n=5 replicates, where each replicate consisted of at least three pooled individual seedlings and readings.

[3] = aqueous acetonitrile solution in HPLC vials, pH 6.7, 1:1 acetonitrile:water, 21 °C, pH 6.7, extrapolated from plots of peak area versus time, read-out: Half-life (t1/2, h) ACN:Water, 1:1 (converted)
[4] = aqueous methanol solution in HPLC vials, pH 6.7, 30% MeOH in water, 21 °C, pH 6.7, extrapolated from plots of peak area versus time, read-out: Half-life (t1/2, h) 30% MeOH (converted)
[5] = aqueous solutions in HPLC vials, summary statement in the discussion, read-out: Half-life time (t1/2), solvent not specified / depending on the solvent

| half-life at 200 μg ml^–1 [1, 3] [h] | half-life at 200 μg ml^–1 [1, 4] [h] | half-life at 200 μg ml^–1 [1, 5] [h] | Structure (SMILES) | Antagonism of (+)-GR24 [2] |
| --- | --- | --- | --- | --- |
| 3.8 | ~3 | < 4 | CC1=C[C@H](O/C=C2/C(=O)O[C@@H]3c4ccccc4C[C@H]23)NC1=O (racemic) [rac-3] | – |
| 4.4 | ~3 | – | CC1=C[C@H](O/C=C2/C(=O)O[C@H]3c4ccccc4C[C@@H]23)NC1=O (racemic) [rac-4] | – |
| 2900 | 1100 | 1000 to 3000 | CC1=CC(C2Cc3c(n(C)c4ccccc34)C2=O)NC1=O (racemic) [rac-9] | no antagonistic behaviour; also recorded: did not possess antagonistic activity |

From paper PMC5913603, “Structure–activity relationships of strigolactones via a novel, quantitative in planta bioassay” (Journal of Experimental Botany, 2018)
